≈ marks a conversion by molar mass, not a printed value.
Experiments:
[1] = test system: E. faecalis; test: Bacterial colonization of the nematode intestine (CFU per worm); format: in vivo, Enterococcus faecalis; conditions: 100% = 3.28 × 10^4 CFU/worm
Description: Infected worms were washed three times with M9 buffer containing 1 mM sodium azide. Approximately 10 worms were transferred to a 2 ml microcentrifuge tube and the volume was brought to 250 μl. Fifty μl of buffer was removed and plated to determine the number of external CFU.

[2] = test system: E. faecalis strain MMH594; test: C. elegans-E. faecalis liquid infection (curing) assay in 96-well plates, worm survival; format: in vivo, Enterococcus faecalis; conditions: glp-4, sek-1 C. elegans infected with E. faecalis MMH594
Description: (§1) Worm survival was scored manually after 6 days of incubation. […] MICs were determined against E. faecalis strain MMH594 using 2-fold dilution in BHI media according to the broth microdilution protocol of the NCCLS (CLSI) (National Committee for Clinical Laboratory Standards, Approved Standard M7-A5; Methods for Dilution Antimicrobial Susceptibility Tests for Bacteria that Grow Aerobically, Villanova, Pa.: NCCLS (2000)).

[3] = test system: E. faecalis strain MMH594; test: MIC, 2-fold broth microdilution in BHI media (NCCLS); format: cell-based, Enterococcus faecalis; conditions: E30 value is at its aqueous solubility limit
Description: as §1

[4] = test system: C. albicans strain MLR62; test: C. elegans liquid medium killing assay with established antifungals; format: in vivo, Candida albicans
Description: (§2) Candida strains were inoculated in 2 ml of YPD and grown at 30° C. for 24 hours. Lawns were prepared by spreading 10 μl of each culture on 35 mm tissue-culture plates (Falcon) containing solid brain heart infusion (BHI) media (Difco) with kanamycin (45 μg/ml), ampicillin (100 μg/ml), and streptomycin (100 μg/ml). The plates were incubated at 30′C for 24 hours followed by 25° C. for 24 hours. glp-4; sek-1 and glp-4 worms were grown at 15° C. until they reached the L2 stage, and then they were transferred to 25° C. for 24 h. N2 wild-type worms were grown at 15° C. for 72 h, until they reached the L4 stage. Approximately 100 worms were picked onto each lawn and allowed to feed for 30 minutes to 2 hours. The worms were washed off the plates with M9 buffer and allowed to crawl on unseeded BHI plates to remove yeast cells from their cuticles. Roughly 70-80 worms were then picked to wells in a six-well microtiter dish that contained 1.5 ml liquid medium of 79% M9 buffer, 20% BHI, 2 μM cholesterol and 90 μg/ml kanamycin. The plates were incubated at 25° C. overnight and then examined at 24-hour intervals for survival.
To develop a system that allows high throughput screening for antifungal compounds, we first evaluated whether established antifungals prolong the survival of nematodes infected with Candida spp. For this, we used different C. albicans isolates as well as non-albicans strains, including those used as reference strains by clinical microbiology laboratories ([…], N. C. F. C. L. Methods for antifungal disk diffusion susceptibility testing of yeasts; approved guideline M44-A. (National Committee for Clinical Laboratory Standards, Wayne, Pa., 2004)).

[5] = test system: C. krusei ATCC#6258; conditions: cited from earlier work
[6] = test system: C. parapsilosis ATCC#22019; conditions: cited from earlier work
[7] = test system: C. albicans MLR62; test: Fungal burden within C. elegans (cfu per worm); format: in vivo, Candida albicans; conditions: for concentration of Candida cfu in the nematodes: data not shown
Description: The number of C. albicans colony forming units in C. elegans was quantified based on the protocol detailed by Tang et al., Infect. Immun. 73:8219 (2005) and Garsin et al., Proc. Natl. Acad Sci. USA 98:10892 (2001) with a few modifications. C. albicans strain MLR62 lawns were prepared on BHI as described above. C. elegans glp-4; sek-1 worms were exposed to the lawns for 30 minutes and then moved to liquid media and incubated at 25° C. in the presence or absence of antifungal agents. At appropriate time points, 3 groups of 10 worms each were washed twice in 8 μl drops of M9 buffer on BHI agar plates, in order to remove surface Candida. Each group of 10 worms was then disrupted using a Pellet Pestle Motor (Kontes) and plated on YPD agar containing kanamycin (45 μg/ml), ampicillin (100 μg/ml), and streptomycin (100 μg/ml). The plates were incubated for 48 hours at 30′C and colonies were counted.

[8] = test system: DAY185; conditions: Candida strain DAY185; cited from earlier work
[9] = test system: C. albicans ATCC#90028; conditions: cited from earlier work
[10] = test system: C. albicans strain MLR62; test: C. elegans-Candida killing assay, compound library screen in 96-well plates; format: in vivo, Candida albicans; conditions: positive control of the screen; <25% alive in PBS
Description: For testing the efficacy of chemical compounds, C. albicans strain MLR62 was inoculated into 2 ml of YPD and grown at 30° C. for 24 hours; 10 μl of the culture was spread on 35-mm tissue-culture plates (Falcon) containing brain heart infusion (BHI) agar (Difco) with kanamycin (45 μg/ml), ampicillin (100 μg/ml), and streptomycin (100 μg/ml). The plates were incubated at 30° C. for 24 hours. C. elegans animals at the L4 developmental stage (grown as detailed above under C. elegans liquid medium killing assays) were transferred from a lawn of E. coli HB101 onto C. albicans lawns on BHI medium, incubated at 25° C. for 30 minutes, and then pipetted in 50 μl into 96-well plate wells that contained 100 μl liquid media (79% of M9 buffer, 20% BHI media, 2 μM cholesterol and 90 μg/ml kanamycin). C. elegans glp-4; sek-1 nematodes were pipetted into 96-well plates that contained compounds from chemical libraries. Library 1361 was assembled by Biomol and contains well-characterized compounds that affect many different aspects of cellular pathways. The NINDS custom collection (plates 501-503) was put together by MicroSource Discovery Systems for the National Institute of Neurological Disorders and Stroke (NINDS), the Huntington's Disease Society of America (HDSA), the Amyotrophic Lateral Sclerosis (ALS) Association, and the Hereditary Disease Foundation (HDF). It mostly contains FDA approved drugs. The Prestwick library (plate 1569) contains compounds that are known to be safe and bioactive in humans. The majority of the compounds are marketed drugs.
On day 6, nematodes were evaluated for survival, filament formation and optical density. The plates were incubated at 25° C. and examined on day 6 for survival with a Nikon SMZ645 dissecting microscope. In addition, images were obtained using a CellWorx High Content Cell Analysis System (Applied Precision) at 4× magnification. Dead worms were counted but not removed. […] Each compound was also scored by the number of dead worms in the well that developed hyphea. […] Compounds were categorized as having a minimal effect on filament formation if 25-75% of the dead worms developed hyphea.
Approximately 25 nematodes were used to analyze each chemical compound tested. Two controls were used in all plates. […] In this pilot screen, we considered a compound as a “hit” when survival in the compound well with was 50% and above of the median survival of the control wells. Depending on the compound library, the final concentration of the compounds was 33.33 μg/ml, 13.33 μg/ml, or […].

[11] = test system: C. krusei ATCC#6258; format: in vivo; conditions: fluconazole 32 μg/ml, fluconazole-resistant strain
Description: as §2
To develop a system that allows high throughput screening for antifungal compounds, we first evaluated whether established antifungals prolong the survival of nematodes infected with Candida spp. […]

[12] = caspofungin 8 μg/ml, amphotericin B 16 μg/ml, fluconazole 32 μg/ml, FIG. 17A

Row | SMILES | Amt. Colonization vs untreated [1] | Therapeutic Concentration [2] | Fold Survival vs untreated ([2]; untreated = 24% survival) | MIC [3] | prolongation of nematode survival ([4]; in vivo) | MIC [5] | MIC [6] | concentration of Candida cfu in the nematodes [7] | MIC [8] | prolongation of nematode survival [4, 12] | lowest effective concentration (effective at concentrations as low as) ([4]; nematode survival, P<0.0001) | fungal burden, average colony-forming units ([7]; 8 μg/ml, untreated 170.8±63.5 cfu per worm, P<0.001) | MIC [9] | nematode survival at day 6 [10] | effect on nematode survival [11]
1 | O=c1oc2ccccc2c(O)c1/C(=C/C(=N/Nc1ccccc1)c1ccc(-c2ccc(Br)cc2)cc1)c1ccccc1 [Compound G1] | 6% | 25 µg/mL | 3.3 | 31.3 µg/mL (≈ 51 µM) |  |  |  |  |  |  |  |  |  |  | 
2 | C[C@@H]1[C@H](O)[C@@H](C)/C=C/C=C/C=C/C=C/C=C/C=C/C=C/[C@H](O[C@@H]2O[C@H](C)[C@@H](O)[C@H](N)[C@@H]2O)C[C@@H]2O[C@](O)(C[C@@H](O)C[C@@H](O)[C@H](O)CC[C@@H](O)C[C@@H](O)CC(=O)O[C@H]1C)C[C@H](O)[C@H]2C(=O)O [amphotericin B] |  |  |  |  | effective | MIC: 2 μg/ml for amphotericin B^d, | MIC: 2 μg/ml for amphotericin B^d, | significantly decreased | 0.5 µg/mL (≈ 0.541 µM) |  |  |  |  |  | 
3 | CC[C@H](C)C[C@H](C)CCCCCCCCC(=O)N[C@H]1C[C@@H](O)[C@@H](NCCN)NC(=O)[C@@H]2[C@@H](O)CCN2C(=O)[C@H]([C@H](O)CCN)NC(=O)[C@H]([C@H](O)[C@@H](O)c2ccc(O)cc2)NC(=O)[C@@H]2C[C@@H](O)CN2C(=O)[C@H]([C@@H](C)O)NC1=O [caspofungin] |  |  |  |  |  | 0.5 to 2 µg/mL | 0.5 to 2 µg/mL |  | 2 µg/mL (≈ 1.83 µM) | effective | 1 µg/mL | 0.3±0.2 cfu per worm | 1 μg/ml for caspofungin | > 75% | 
4 | OC(Cn1cncn1)(Cn1cncn1)c1ccc(F)cc1F [fluconazole] |  |  |  |  |  | 32 µg/mL (≈ 104 µM) | 2 µg/mL (≈ 6.53 µM) | significantly decreased | 2 µg/mL (≈ 6.53 µM) | effective |  |  |  |  | no effect
